The results in this text go back to ChEMBL document CHEMBL1201862, “PubChem BioAssay data set” (2004).

Molecules are shown by their SMILES. Calls of active or inactive are those of the source.

A word on the AC50: it is the concentration giving half of the maximal activity seen. Usually IC50 stands for the midpoint of a concentration-inhibition curve.

The target in assay [1] is T1, Short transient receptor potential channel 4 (Mus musculus, UniProt Q9QUQ5).
T1 sequence (Q9QUQ5 whole entry): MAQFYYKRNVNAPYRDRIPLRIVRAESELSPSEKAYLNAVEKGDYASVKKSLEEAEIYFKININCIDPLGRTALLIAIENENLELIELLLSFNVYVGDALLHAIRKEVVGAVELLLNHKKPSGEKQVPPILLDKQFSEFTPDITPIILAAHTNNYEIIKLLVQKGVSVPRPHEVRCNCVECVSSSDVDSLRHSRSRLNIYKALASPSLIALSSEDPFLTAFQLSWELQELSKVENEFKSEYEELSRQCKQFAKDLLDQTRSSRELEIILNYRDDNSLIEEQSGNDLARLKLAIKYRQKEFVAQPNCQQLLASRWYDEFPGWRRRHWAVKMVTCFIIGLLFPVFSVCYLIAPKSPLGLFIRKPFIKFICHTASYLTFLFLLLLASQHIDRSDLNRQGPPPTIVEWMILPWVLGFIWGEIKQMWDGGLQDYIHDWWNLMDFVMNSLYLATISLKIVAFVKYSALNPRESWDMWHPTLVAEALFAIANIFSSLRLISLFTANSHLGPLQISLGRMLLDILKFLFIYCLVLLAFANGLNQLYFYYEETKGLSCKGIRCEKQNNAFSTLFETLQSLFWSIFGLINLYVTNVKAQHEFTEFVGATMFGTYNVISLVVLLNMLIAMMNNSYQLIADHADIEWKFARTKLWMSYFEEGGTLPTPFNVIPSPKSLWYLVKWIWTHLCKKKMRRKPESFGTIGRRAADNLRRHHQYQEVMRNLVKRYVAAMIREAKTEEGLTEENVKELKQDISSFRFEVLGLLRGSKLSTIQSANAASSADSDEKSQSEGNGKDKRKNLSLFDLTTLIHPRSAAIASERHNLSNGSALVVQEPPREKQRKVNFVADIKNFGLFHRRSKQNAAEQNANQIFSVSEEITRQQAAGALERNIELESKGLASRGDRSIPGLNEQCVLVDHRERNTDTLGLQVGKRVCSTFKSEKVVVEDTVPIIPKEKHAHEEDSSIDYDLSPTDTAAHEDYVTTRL
Description: mouse TRPC4 channel inhibitors, dose response, cell-based, HEK293 TRPC4/mu-opioid, Fluo-4 calcium (AID 434942).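 Also: potency of inhibitors blocking the TRPC4 calcium response.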 It is filed as functional.

The subject of a further assay is HeLa. The assay can be described thus: HeLa cell cytotoxicity, dose response, cytotoxicity control for MITF activator project, CellTiter-Glo luminescence, cherry-pick samples (AID 540259). The format is functional, cell-based. The settings on record: Homo sapiens. In general terms: In ATP-based viability assays light output follows the ATP content of the culture.

Assay [2] addresses T1, Short transient receptor potential channel 4. The assay can be described thus: mouse TRPC4 channel activators, dose response, cell-based, HEK293 TRPC4/mu-opioid, Fluo-4 calcium (AID 434937). It is filed as functional.
Assay [3] has as its target T2, Rac GTPase-activating protein 1 (Homo sapiens, UniProt Q9H0H5).
T2 sequence (Q9H0H5 whole entry): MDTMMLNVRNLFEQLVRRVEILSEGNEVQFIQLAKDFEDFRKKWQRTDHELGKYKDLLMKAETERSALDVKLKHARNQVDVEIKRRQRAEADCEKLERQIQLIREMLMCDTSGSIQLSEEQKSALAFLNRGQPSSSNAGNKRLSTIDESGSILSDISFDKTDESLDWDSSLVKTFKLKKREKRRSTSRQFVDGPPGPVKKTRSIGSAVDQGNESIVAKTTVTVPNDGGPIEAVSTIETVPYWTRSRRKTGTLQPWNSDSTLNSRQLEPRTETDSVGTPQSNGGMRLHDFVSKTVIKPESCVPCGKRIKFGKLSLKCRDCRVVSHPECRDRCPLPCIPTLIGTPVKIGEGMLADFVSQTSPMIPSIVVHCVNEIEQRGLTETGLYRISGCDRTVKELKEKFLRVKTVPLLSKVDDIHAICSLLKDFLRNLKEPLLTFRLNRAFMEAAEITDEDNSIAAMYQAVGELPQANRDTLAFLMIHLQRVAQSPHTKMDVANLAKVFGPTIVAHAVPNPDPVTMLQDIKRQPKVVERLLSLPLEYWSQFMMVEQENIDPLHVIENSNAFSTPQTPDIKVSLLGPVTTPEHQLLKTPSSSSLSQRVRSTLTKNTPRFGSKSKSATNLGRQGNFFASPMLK
The assay can be described thus: MgcRacGAP GTPase-activating activity inhibitors, confirmation, biochemical, ADP Hunter fluorescence, primary and confirmatory (AID 624330). The format is functional.

The next assay concerns H4. The assay can be described thus: Luminescence Cell-Based Dose Response HTS to Identify Activators of 5'UTR Stem-Loop Driven Prion Protein mRNA Translation in H4 Neuroglioblastoma Cells. [Related pubchem assays: 1829 (Project Summary), 1814 (Primary HTS)]. The format is functional. The following applies: Homo sapiens.
The nature of assay [4]: Luminescence Cell-Based Dose Response HTS to Identify Activators of Luciferase Translation or Activity in H4 […] Cells. [Related pubchem assays: 1829 (Project Summary), 1814 (Primary HTS)]. The format is functional.
Assay [5] in a line: Luminescence Cell-Based Dose Confirmation HTS to Identify Activators of 5'UTR Stem-Loop Driven Alpha-Synuclein mRNA Translation in H4 Neuroglioblastoma Cells. [Related pubchem assays: 1829 (Project Summary), 1814 (Primary HTS)]. The format is functional.
Another assay concerns the target Cytochrome P450 2C9 (Homo sapiens, UniProt P11712).
The next assay addresses Cytochrome P450 2C19 (Homo sapiens, UniProt P33261). The assay can be described thus: Cytochrome panel assay with activity outcomes. Panel member name: p450-cyp2c19 Compounds with AC50 equal or less than 10 uM are considered active. The format is functional. The following applies: read-out: AC50.
Assay [6] has as its target T3, Corticotropin-releasing factor receptor 2/Corticotropin-releasing factor-binding protein (Homo sapiens, UniProt P24387+Q13324).
T3 sequence (Q13324 whole entry): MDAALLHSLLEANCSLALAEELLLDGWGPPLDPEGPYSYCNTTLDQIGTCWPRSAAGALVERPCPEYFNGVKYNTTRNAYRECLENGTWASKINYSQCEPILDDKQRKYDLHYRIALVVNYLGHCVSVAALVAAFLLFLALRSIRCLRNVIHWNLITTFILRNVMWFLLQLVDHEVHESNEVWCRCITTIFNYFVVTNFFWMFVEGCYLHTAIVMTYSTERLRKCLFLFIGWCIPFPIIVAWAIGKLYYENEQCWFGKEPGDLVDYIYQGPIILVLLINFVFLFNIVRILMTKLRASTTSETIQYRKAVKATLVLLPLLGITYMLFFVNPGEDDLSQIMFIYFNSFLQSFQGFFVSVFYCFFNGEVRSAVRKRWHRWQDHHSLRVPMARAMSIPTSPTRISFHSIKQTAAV
T3 sequence (P24387 whole entry): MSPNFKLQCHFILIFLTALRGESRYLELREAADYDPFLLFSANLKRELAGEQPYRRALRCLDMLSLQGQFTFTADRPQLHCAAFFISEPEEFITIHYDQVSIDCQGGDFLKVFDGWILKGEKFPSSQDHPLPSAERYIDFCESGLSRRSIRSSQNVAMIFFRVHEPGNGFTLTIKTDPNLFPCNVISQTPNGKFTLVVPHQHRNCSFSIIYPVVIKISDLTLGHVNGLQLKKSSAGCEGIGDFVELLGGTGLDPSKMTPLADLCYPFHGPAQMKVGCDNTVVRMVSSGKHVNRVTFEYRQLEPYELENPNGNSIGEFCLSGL
The assay can be described thus: activators of CRF receptor 2 with binding protein – uHTS hits, confirmation (AID 602473). It is filed as functional. The settings on record: read-out: EC50_Mean.

The nature of assay [7]: cytotoxicity toward NIH3T3 fibroblasts, dose response, counter-screen, cell-based, ATP luminescence, mouse fibroblasts (AID 2010).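 Also: cells exposed to compound for about 90 hours before reading.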 It is filed as functional.
A short description of assay [8]: inhibitors of intracellular T. cruzi replication, confirmation, NIH3T3 host cells, beta-gal luminescence (AID 2044).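 Also: intracellular parasites grown in NIH/3T3 mouse fibroblasts as host cells; luminescent beta-galactosidase reporter signal from transgenic T. cruzi replicating inside host cells; inhibitors lower the luminescence signal.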 It is filed as functional, cell-based.

Chain of Cytochrome P450 2C9 (P11712 whole entry): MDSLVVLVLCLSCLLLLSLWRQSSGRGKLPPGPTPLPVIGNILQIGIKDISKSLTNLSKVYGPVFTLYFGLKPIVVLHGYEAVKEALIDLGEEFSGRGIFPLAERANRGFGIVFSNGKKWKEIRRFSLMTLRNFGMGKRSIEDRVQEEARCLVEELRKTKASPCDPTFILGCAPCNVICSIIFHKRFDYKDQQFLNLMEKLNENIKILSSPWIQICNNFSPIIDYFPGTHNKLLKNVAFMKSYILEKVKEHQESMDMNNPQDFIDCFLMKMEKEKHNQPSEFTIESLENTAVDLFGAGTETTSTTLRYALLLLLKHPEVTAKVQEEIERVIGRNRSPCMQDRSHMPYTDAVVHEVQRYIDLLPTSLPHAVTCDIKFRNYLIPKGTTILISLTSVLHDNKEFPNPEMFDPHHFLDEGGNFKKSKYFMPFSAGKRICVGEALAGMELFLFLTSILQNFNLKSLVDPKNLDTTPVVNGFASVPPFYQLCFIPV
Chain of Cytochrome P450 2C19 (P33261 whole entry): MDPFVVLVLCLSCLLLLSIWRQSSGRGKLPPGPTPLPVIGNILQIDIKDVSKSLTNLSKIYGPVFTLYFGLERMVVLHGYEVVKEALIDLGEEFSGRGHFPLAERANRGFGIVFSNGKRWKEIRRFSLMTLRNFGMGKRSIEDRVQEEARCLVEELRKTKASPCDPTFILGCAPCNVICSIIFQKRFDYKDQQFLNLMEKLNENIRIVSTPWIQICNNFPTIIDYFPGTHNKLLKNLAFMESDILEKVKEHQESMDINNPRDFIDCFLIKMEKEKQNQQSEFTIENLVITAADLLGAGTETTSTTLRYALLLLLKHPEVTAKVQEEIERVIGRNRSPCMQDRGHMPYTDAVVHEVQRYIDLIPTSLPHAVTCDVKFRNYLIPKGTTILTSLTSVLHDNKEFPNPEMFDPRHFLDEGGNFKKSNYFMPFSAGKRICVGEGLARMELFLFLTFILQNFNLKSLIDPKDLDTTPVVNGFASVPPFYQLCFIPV

For the molecule `Cc1cc2cc(C#N)c(NCCN=C(S)NCCCN3CCOCC3)nc2cc1C`, the EC50 in assay [1] is 5.31 µM (active).
Take `Cc1cccc(-n2ncc3c(N4CC(C)CC(C)C4)ncnc32)c1` (stereo not drawn): in the assay on HeLa, the AC50 was 163 µM (active).
As for `CSCCC(NS(=O)(=O)c1ccc2c(c1)c(=O)n(C)c(=O)n2C)C(=O)NC1CCN(Cc2ccccc2)CC1` (stereo not drawn), the EC50 in [2] is 3.76 µM (active).
In the case of `O=C(c1ccc(F)cc1)c1ccc(N2CCCCC2)cc1`, the AC50 in the assay on HeLa is 57.7 µM (active).
With `COc1ccc(OC(=O)COc2ccc(C)cc2)cc1`, the IC50 in assay [3] was 30 µM (active).
For the molecule `Oc1nc2cc3c(cc2cc1CN(Cc1nnnn1C1CCCC1)C1CCCC1)OCCO3`, the EC50 in the assay with H4 was 59.4 µM (active); in assay [4], > 120 µM (not active); in assay [5] it was > 120 µM (not active).
Turning to `CCCCNCc1cc(Cl)c(OCCC)c(OCC)c1`, the EC50 in assay [1] is 2.37 µM (active).
As to `OCCNc1nc(NCc2ccccc2)c2ccccc2n1`, the EC50 in assay [1] is 3.35 µM (active).
For the molecule `CC(C)=CCCC(C)CN1CCC(n2nccc2NC(=O)C2CCCC2)CC1` (stereo not drawn), the EC50 in [1] is 5.31 µM (active).
On to `O=C(NC(=S)NCc1nc2ccccc2[nH]1)c1ccccc1F`, for which the EC50 with H4 was 9.16 µM (active); in assay [4], 25.6 µM (active); in assay [5], 70.7 µM (active).
Regarding `CNCCOc1ccc(Cl)c(Cl)c1`, the EC50 in [2] was 0.944 µM (active).
As for `CCCCN(CCCC)C(=N)Nc1nc(C)cc(C)n1`, the EC50 in assay [1] is 3.76 µM (active).
Consider `CCCc1ccc(-c2cc(C(=O)NCCc3ccc(S(N)(=O)=O)cc3)c3ccccc3n2)cc1`, for which the AC50 in the assay on HeLa is 37.5 µM (active).
For the molecule `CCOc1ccc2ncc(C(=O)c3ccc(OC)cc3)c(N3CCN(CC)CC3)c2c1`, in [2], the EC50 was 5.96 µM (active).
On to `COc1cc(C)c(NC(c2ccccc2)c2ccccc2)cc1OC`, for which, in [3], the IC50 was 113 µM (active).
On the same count and under the same terms, the result for `CC(Oc1ccc(Cl)cc1Cl)C(=O)Nc1ccc(O)cc1` (stereo not drawn) reads 38.4 µM (active).
On to `Cc1ccc(-n2[nH]c(=O)c3cccnc32)cc1`, for which the AC50 is 28.2 µM (inconclusive) on Cytochrome P450 2C9 and 25.1 µM (inconclusive) on Cytochrome P450 2C19. Further, the 50% inhibitory concentration (IC50) in [3] was 95.2 µM (active).
`Fc1ccc(-n2cc(CNCCc3ccncc3)c(-c3ccccc3Cl)n2)cc1`: the EC50 in [1] is 3.35 µM (active).
In the case of `CCn1c(COc2ccccc2C)nc2ccccc21`, the EC50 in [6] is 4.28 µM (active). Moreover, the AC50 in the assay on HeLa was 81 µM (active).
With `CC(NCc1cc(Br)ccc1OCC(=O)NCc1ccccc1)c1ccccc1` (stereo not drawn), the EC50 was > 60 µM (not active) in assay [7], 1.06 µM (active) in assay [1], 7.5 µM (active) in assay [2] and 2.53 µM (active) in assay [8].
Take `COc1cccc(/C=C/C(=O)OC(C)C(=O)Nc2c(C)n(C)n(-c3ccccc3)c2=O)c1` (stereo not drawn): the EC50 in the assay with H4 is > 120 µM (not active); in assay [4] it was 49.1 µM (active); in [5] it was 10.5 µM (active).
For `O=C(NC1=NCCS1)C12CC3CC(C1)CC(C(=O)NC1=NCCS1)(C3)C2`, the figures for the EC50 (in the assay on H4; in [4]; in [5]) were 9.63 µM (active), 13.6 µM (inconclusive) and > 120 µM (not active), respectively.
Consider `Nc1c(Cl)cc(NC(=O)c2ccccc2C(=O)O)cc1Br`, for which the IC50 in [3] is 169 µM (active).
Take `COc1cccc(CNC(=O)CN2C(=O)CSc3ccc(S(=O)(=O)N4CCCCC4)cc32)c1`: the EC50 (in the assay with H4; in assay [4]; in [5]) was > 120 µM (not active) in each case.
Regarding `COCCN(C(=O)COC(=O)/C=C/c1ccccc1Cl)c1c(N)n(Cc2ccccc2)c(=O)[nH]c1=O`, the EC50 in the assay with H4 was > 120 µM (not active); in assay [4], 9.52 µM (active); in assay [5] it was 26.2 µM (active).
As for `COc1cccc2cc(CC(=O)c3ccc(C)cc3C)c(=O)oc12`, the EC50 in the assay on H4 was 11 µM (active); in assay [4] it was 43.4 µM (active); in assay [5], 43.3 µM (active). The AC50 with HeLa was 83.9 µM (active).
With `CC(Oc1ccc(Cl)cc1Cl)c1nc(-c2ccccn2)no1` (stereo not drawn), in [1], the EC50 is 1.88 µM (active).
As to `Oc1c(Br)cc(Br)cc1/C=N/c1ccc2[nH]ncc2c1`, the EC50 in assay [1] is 4.22 µM (active).
For `Cc1ccc(NC(=O)CN2CCCC2c2cccn2C)c(Br)c1` (stereo not drawn), the AC50 in the assay on HeLa was 52.2 µM (active).
On to `NC(=O)c1nsc(C(=O)N(Cc2ccc(F)cc2)C(C(=O)NCC2CCCO2)c2ccc(O)cc2)c1N` (stereo not drawn), for which, in assay [1], the EC50 was 2.37 µM (active).
Turning to `Nc1c(-c2ccc(Cl)cc2)cnn1-c1ccccc1`, in the assay with HeLa, the AC50 is 64.2 µM (active).
`COc1ccc(C(CNC(=O)c2cccc(NS(=O)(=O)c3ccc(Br)cc3)c2)N(C)C)cc1` (stereo not drawn): the EC50 in assay [2] was 5.31 µM (active).
